# Several values for one entry are separate records, joined by “and”; a condition that tells them apart may be missing. Equal entries are not always repeated.
# Tests used:
# [1] = UV absorbance spectrum in pH 10 borate buffer; format: physicochemical; conditions: 10 μM, inset of FIG. 3
# Procedure: FIG. 3. Fluorescence spectra. Curve A: BODIPY FL in pH 10 buffer, 50 nM, excited at 505 nm, excitation and emission slit 2.5 nm; Curve B: fluorescein in pH 10 borate buffer, 50 nM, excited at 488 nm, excitation and emission slit 2.5 nm; Curve C: compound 8 in pH 10 borate buffer, 50 nM, excited at 459 nm, excitation slit 2.5 nm, emission slit 8 nm; Curve D: compound 8 in methanol, 50 nM, excited at 459 nm, excitation slit 2.5 nm, emission slit 8 nm; Inset is UV spectrum of 8 in pH 10 borate buffer, 10 μM, peak absorption wavelength: 459 nm and 483 nm.
# In FIG. 3 the fluorescence spectra of fluorescein, a BODPIY FL dye (Molecular Probes Inc., Eugene Oreg.), and xanthamide dye 8 are compared. Fluorescein and BODIPY dyes are popular, and many instruments have been set up for their measurement. Thus it is attractive that xanthamide dye 8 has a similar fluorescence emission relative to that of fluorescein and a typical BODIPY dye. […] This adds to the practicality of 8.
# [2] = Photostability study: irradiation with a 200 W soft white bulb, fluorescence of aliquots vs. time; format: physicochemical; conditions: 50 nM in pH 10 borate buffer, 200 watt soft white bulb at 10 cm, excitation at 459 nm, FIG. 4
# Procedure: FIG. 4. Photostability comparison vs. time (hour) of 5 (*), 8 (▪), fluorescein (Δ) and BODIPY FL (♦); concentration 50 nM in pH 10 borate buffer. Excited at 459 nm for 5 and 8, 488 nm for fluorescein, 505 nm for BODIPY FL.
# The photostability study was conducted by irradiating a 50 nM pH 10 sample solution of each dye (1, BODIPY-FL, 5 and 8) using a Hotspot lamp (Cheltenham, Pa.) with a 200W soft white bulb (General Electric, Canada), positioned at a distance of 10 cm between the sample and the bulb. The sample solution was cooled by circulating room temperature water. Fluorescence spectra were recorded on aliquots taken as a function of time.
absorbance maxima [1],photostability relative to fluorescein and a typical BODIPY dye [2],SMILES
459 nm and 483 nm,remarkable photostability,"COc1ccc2c(-c3ccccc3C(=O)N3CCC(C(=O)O)CC3)c3ccc(=O)cc-3oc2c1 [compound 8, 1-[2-(6-Methoxy-3-oxo-3H-xanthen-9-yl)-benzoyl]-piperidine-4-carboxylic acid]"
,very good photostability,"CN(C)C(=O)c1ccccc1-c1c2ccc(=O)cc-2oc2cc(OCC(=O)O)ccc12 [compound 5, [9-(2-Dimethylcarbamoyl-phenyl)-6-oxo-6H-xanthen-3-yloxy]-acetic acid]"
